Data published in patent US10344039B2, “Macrocyclic spirocarbamate derivatives as factor XIa inhibitors, pharmaceutically acceptable compositions and their use” (MERCK SHARP & DOHME CORP., priority 2015, dated 2019).

Assays:
[1] = molecular target: T1, purified Human plasma kallikrein (Homo sapiens, UniProt P03952); experiment: Kallikrein Assay; format: biochemical; conditions: purified Human plasma kallikrein 0.5 nM; substrate Acetyl-K-P-R-AFC; 50 mM HEPES pH 7.4; Ki from IC50 by Cheng Prusoff equation; read-out: Hu P. Kallikrein
T1 construct: yields a heavy chain (371 amino acids) and a light chain (248 amino acids); purchased Enzyme Research Laboratories
T1 sequence (P03952 391-638 limits assumed): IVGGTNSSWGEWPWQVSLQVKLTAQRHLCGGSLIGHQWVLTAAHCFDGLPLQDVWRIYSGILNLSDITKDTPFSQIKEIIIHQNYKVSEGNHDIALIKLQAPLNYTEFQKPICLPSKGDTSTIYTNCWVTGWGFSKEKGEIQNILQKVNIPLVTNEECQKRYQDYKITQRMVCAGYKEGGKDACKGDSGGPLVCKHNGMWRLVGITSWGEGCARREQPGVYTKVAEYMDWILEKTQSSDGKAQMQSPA
T1 sequence (P03952 20-390 partner limits assumed): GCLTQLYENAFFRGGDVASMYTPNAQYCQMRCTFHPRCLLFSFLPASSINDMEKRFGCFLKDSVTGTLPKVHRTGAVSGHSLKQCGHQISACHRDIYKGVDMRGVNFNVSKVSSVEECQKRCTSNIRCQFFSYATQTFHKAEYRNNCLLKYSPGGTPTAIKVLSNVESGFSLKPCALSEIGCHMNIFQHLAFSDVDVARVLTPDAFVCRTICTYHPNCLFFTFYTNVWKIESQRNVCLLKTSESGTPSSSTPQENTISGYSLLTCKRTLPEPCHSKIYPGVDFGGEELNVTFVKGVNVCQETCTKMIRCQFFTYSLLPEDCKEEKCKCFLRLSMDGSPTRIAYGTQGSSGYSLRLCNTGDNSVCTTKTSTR
Protocol: The effectiveness of a compound of the present invention as an inhibitor of Kallikrein can be determined using a relevant purified serine protease, and an appropriate synthetic substrate. The rate of hydrolysis of the chromogenic or fluorogenic substrate by the relevant serine protease was measured both in the absence and presence of compounds of the present invention. Assays were conducted at room temperature or at 37° C. […] A decrease in the rate of fluorescence change in the presence of inhibitor is indicative of enzyme inhibition. Such methods are known to one skilled in the art. The results of this assay are expressed as the inhibitory constant, Ki. Kallikrein determinations were made in 50 mM HEPES buffer at pH 7.4 containing 150 mM NaCl, 5 mM CaCl2, and 0.1% PEG 8000 (polyethylene glycol; Fisher Scientific). Determinations were made using purified Human plasma kallikrein at a final concentration of 0.5 nM (Enzyme Research Laboratories) and the synthetic substrate, Acetyl-K—P-R-AFC (Sigma # C6608) at a concentration of […]. Activity assays were performed by diluting a stock solution of substrate at least tenfold to a final concentration ≤0.2 Km into a solution containing enzyme or enzyme equilibrated with inhibitor. Times required to achieve equilibration between enzyme and inhibitor were determined in control experiments. The reactions were performed under linear progress curve conditions and fluorescence increase measured at 405 Ex/510 Em nm. Values were converted to percent inhibition of the control reaction (after subtracting 100% Inhibition value). IC50 was determined by inflection point from a four parameter logistic curve fit. Ki was calculated using the Cheng Prusoff equation, Ki=IC50/(1+([S]/Km)). The activities shown by this assay indicate that the compounds of the invention may be therapeutically useful for treating or preventing various cardiovascular and/or cerebrovascular thromboembolic conditions in patients suffering from unstable angina, acute coronary syndrome, refractory angina, myocardial infarction, transient ischemic attacks, atrial fibrillation, stroke such as thrombotic stroke or embolic stroke, venous thrombosis, coronary and cerebral arterial thrombosis, cerebral and pulmonary embolism, atherosclerosis, deep vein thrombosis, disseminated intravascular coagulation, and reocclusion or restenosis of recanalized vessels.

[2] = molecular target: T2, purified human Factor XIa (Homo sapiens, UniProt P03951); experiment: Factor XIa Assay; format: biochemical; conditions: purified human Factor XIa 40 pM; substrate Z-Gly-Pro-Arg-AFC 100 μM; 50 mM HEPES pH 7.4; read-out: Hu FXIa Ki
T2 construct: purified human Factor XIa; purchased Sekisui Diagnostics
T2 sequence (P03951 388-625 limits assumed): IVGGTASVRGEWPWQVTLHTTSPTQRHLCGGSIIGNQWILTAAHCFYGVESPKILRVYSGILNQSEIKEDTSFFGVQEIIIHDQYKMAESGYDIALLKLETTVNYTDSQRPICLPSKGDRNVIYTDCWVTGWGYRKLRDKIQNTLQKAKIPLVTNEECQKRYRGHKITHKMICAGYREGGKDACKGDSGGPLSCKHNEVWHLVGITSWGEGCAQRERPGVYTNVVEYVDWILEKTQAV
T2 sequence (P03951 19-387 partner limits assumed): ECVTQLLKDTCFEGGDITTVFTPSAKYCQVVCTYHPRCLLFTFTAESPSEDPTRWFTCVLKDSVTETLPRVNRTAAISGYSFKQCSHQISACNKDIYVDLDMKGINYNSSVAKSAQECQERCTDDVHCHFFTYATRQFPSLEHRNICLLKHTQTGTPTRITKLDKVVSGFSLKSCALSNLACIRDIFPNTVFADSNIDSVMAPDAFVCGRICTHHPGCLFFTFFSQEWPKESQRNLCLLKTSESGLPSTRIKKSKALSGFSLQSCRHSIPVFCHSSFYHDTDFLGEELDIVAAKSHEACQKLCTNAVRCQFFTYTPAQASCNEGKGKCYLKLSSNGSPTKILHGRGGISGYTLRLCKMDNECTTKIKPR
Procedure, shortened: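 Purified human FXIa at 40 pM, in 50 mM HEPES pH 7.4 with 150 mM NaCl, 5 mM CaCl2 and 0.1% PEG 8000, was preequilibrated with inhibitor. Initial hydrolysis rates of Z-Gly-Pro-Arg-AFC were then measured at room temperature or 37 °C. Ki was derived from Vo/Vi = 1 + [I]/Ki, assuming competitive inhibition.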

Row | SMILES | Ki [1] [nM] | Ki [2] [nM]
1 | COC(=O)Nc1ccc2c(c1)NC(=O)[C@H](C)CCCC(C(=O)N1CCC[C@@]3(C1)OC(=O)Nc1ccc(Cl)c(F)c13)c1nc-2c(Cl)[nH]1 (stereo partly drawn) [Example 10, methyl ((5R,Z)-1^5-chloro-9-((R)-6-chloro-5-fluoro-2-oxo-1,2-dihydrospiro[benzo[d][1,3]oxazine-4,3′-piperidine]-1′-carbonyl)-5-methyl-4-oxo-1^1H-3-aza-1(4,2)-imidazola-2(1,2)-benzenacyclononaphane-2^4-yl)carbamate] | 0.96 | 0.67
2 | COC(=O)Nc1ccc2c(c1)NC(=O)CCCC[C@@H](C(=O)N1CC[C@@]3(C1)OC(=O)Nc1ccc(Cl)c(F)c13)c1nc-2c(C)[nH]1 [Example 13b, methyl ((R,Z)-9-((R)-6-chloro-5-fluoro-2-oxo-1,2-dihydrospiro[benzo[d][1,3]oxazine-4,3′-pyrrolidine]-1′-carbonyl)-1^5-methyl-4-oxo-1^1H-3-aza-1(4,2)-imidazola-2(1,2)-benzenacyclononaphane-2^4-yl)carbamate] | 1.11 | 0.6
3 | COC(=O)Nc1ccc2c(c1)NC(=O)[C@H](C)CCC[C@@H](C(=O)N1CCC[C@@]3(C1)OC(=O)Nc1ccc(Cl)c(F)c13)C1=NC=C2O1 [Example 14a, methyl ((5R,9R)-9-((R)-6-chloro-5-fluoro-2-oxo-1,2-dihydrospiro[benzo[d][1,3]oxazine-4,3′-piperidine]-1′-carbonyl)-5-methyl-4-oxo-3-aza-1(5,2)-oxazola-2(1,2)-benzenacyclononaphane-2^4-yl)carbamate] | 5.5 | 13.4
4 | COC(=O)Nc1ccc2c(c1)NC(=O)CCCC[C@@H](C(=O)N1CC[C@@]3(C1)OC(=O)Nc1ccc(Cl)cc13)c1cc-2ccn1 [Example 17a, methyl ((R)-9-((R)-6-chloro-2-oxo-1,2-dihydrospiro[benzo[d][1,3]oxazine-4,3′-pyrrolidine]-1′-carbonyl)-4-oxo-3-aza-1(4,2)-pyridina-2(1,2)-benzenacyclononaphane-2^4-yl)carbamate] | 3.8 | 9.2
5 | COC(=O)Nc1ccc2c(c1)NC(=O)CCCCC[C@@H](C(=O)N1CC[C@@]3(C1)OC(=O)Nc1ccc(Cl)c(F)c13)c1cc-2ccn1 [Example 18a, methyl ((R)-10-((R)-6-chloro-5-fluoro-2-oxo-1,2-dihydrospiro[benzo[d][1,3]oxazine-4,3′-pyrrolidine]-1′-carbonyl)-4-oxo-3-aza-1(4,2)-pyridina-2(1,2)-benzenacyclodecaphane-2^4-yl)carbamate] | 3.65 | 8.6
6 | COC(=O)Nc1ccc2c(c1)NC(=O)CC/C=C/C[C@@H](C(=O)N1CCC[C@@]3(C1)OC(=O)Nc1ccc(Cl)c(F)c13)c1cc-2ccn1 [Example 21a, methyl ((R,E)-10-((R)-6-chloro-5-fluoro-2-oxo-1,2-dihydrospiro[benzo[d][1,3]oxazine-4,3′-piperidine]-1′-carbonyl)-4-oxo-3-aza-1(4,2)-pyridina-2(1,2)-benzenacyclodecaphanen-2^4-yl)carbamate] | 17 | 59.4
7 | COC(=O)Nc1ccc2c(c1)NC(=O)CC/C=C\C[C@@H](C(=O)N1CCC[C@@]3(C1)OC(=O)Nc1ccc(Cl)c(F)c13)c1cc-2ccn1 [Example 22a, methyl ((R,Z)-10-((R)-6-chloro-5-fluoro-2-oxo-1,2-dihydrospiro[benzo[d][1,3]oxazine-4,3′-piperidine]-1′-carbonyl)-4-oxo-3-aza-1(4,2)-pyridina-2(1,2)-benzenacyclodecaphanen-2^4-yl)carbamate] | 0.77 | 2.88
8 | COC(=O)Nc1ccc2c(c1)NC(=O)CCCC[C@@H](C(=O)N1CC[C@@]3(C1)OC(=O)Nc1ccc(Cl)c(F)c13)c1ccnc-2c1 [Example 25a, methyl ((R)-9-((R)-6-chloro-5-fluoro-2-oxo-1,2-dihydrospiro[benzo[d][1,3]oxazine-4,3′-pyrrolidine]-1′-carbonyl)-4-oxo-3-aza-1(2,4)-pyridina-2(1,2)-benzenacyclononaphane-2^4-yl)carbamate] | 0.75 | 1.3
9 | COC(=O)Nc1ccc2c(c1)NC(=O)CCCCC(C(=O)N1CC[C@@]3(C1)OC(=O)Nc1ccc(Cl)cc13)c1cc(F)cc-2c1 (stereo partly drawn) [Example 28, methyl (9-((R)-6-chloro-2-oxo-1,2-dihydrospiro[benzo[d][1,3]oxazine-4,3′-pyrrolidine]-1′-carbonyl)-1^5-fluoro-4-oxo-3-aza-1(1,3),2(1,2)-dibenzenacyclononaphane-2^4-yl)carbamate] | 12.7 | 45.2
10 | COC(=O)Nc1ccc2c(c1)NC(=O)CCCC[C@@H](C(=O)N1CCC[C@@]3(C1)OC(=O)Nc1ccc(Cl)c(F)c13)c1cc(F)cc-2c1 [Example 30b, methyl ((R)-9-((R)-6-chloro-5-fluoro-2-oxo-1,2-dihydrospiro[benzo[d][1,3]oxazine-4,3′-piperidine]-1′-carbonyl)-1^5-fluoro-4-oxo-3-aza-1(1,3),2(1,2)-dibenzenacyclononaphane-2^4-yl)carbamate] | 1.52 | 68.8
11 | CCOC(=O)C1C/C=C/CC(C(=O)N2CCC[C@@]3(C2)OC(=O)Nc2ccc(Cl)c(F)c23)c2nc(c[nH]2)-c2ccc(NC(=O)OC)cc2N1 (stereo partly drawn) [Example 31, ethyl (1^2Z,6E)-9-((R)-6-chloro-5-fluoro-2-oxo-1,2-dihydrospiro[benzo[d][1,3]oxazine-4,3′-piperidine]-1′-carbonyl)-2^4-((methoxycarbonyl)amino)-1^1H-3-aza-1(4,2)-imidazola-2(1,2)-benzenacyclononaphan-6-ene-4-carboxylate] | 63.7 | 41.1
12 | COC(=O)Nc1ccc2c(c1)NC(=O)CCCC[C@H](NC(=O)N1CC[C@@]3(C1)OC(=O)Nc1ccc(Cl)cc13)c1nc-2c[nH]1 [Example 38, methyl ((S,Z)-9-((R)-6-chloro-2-oxo-1,2-dihydrospiro[benzo[d][1,3]oxazine-4,3′-pyrrolidine]-1′-carboxamido)-4-oxo-11H-3-aza-1(4,2)-imidazola-2(1,2)-benzenacyclononaphane-2^4-yl)carbamate] | 4.5 | 16.1
